For assay [1], the system named is Human promyelocytic leukemia (HL60) cells. The assay is described as follows: HL-60 differentiation (nitro blue tetrazolium reduction assay). The assay is classed as cell-based. The settings on record: FIG. 2; for EC50: HL60 cells, four days. As for the experimental part:
The study drugs were dissolved in ethanol and the concentrations determined using UV spectrophotometry. Serial dilutions were prepared so that a range of drug concentrations could be tested without changing the final concentration of ethanol (≦0.2%) present in the cell cultures.
Human promyelocytic leukemia (HL60) cells were grown in RPMI-1640 medium containing 10% fetal bovine serum. The cells were incubated at 37° C. in the presence of 5% CO2.
HL60 cells were plated at 1.2×10^5 cells/ml. Eighteen hours after plating, cells in duplicate were treated with drug. Four days later, the cells were harvested and a nitro blue tetrazolium reduction assay was performed (Collins et al., 1979; J. Exp. Med. 149:969–974). The percentage of differentiated cells was determined by counting a total of 200 cells and recording the number that contained intracellular black-blue formazan deposits. Verification of differentiation to monocytic cells was determined by measuring phagocytic activity (data not shown).

For assay [2], the system named is 24-hydroxylase (24Ohase) gene promoter in ROS 17/2.8 (bone) cells. The assay is described as follows: In vitro transcription assay (24-hydroxylase gene promoter, luciferase reporter). It counts as cell-based. The settings on record: FIG. 3; for EC50: ROS 17/2.8 cells, 16 hours after dosing, read-out: EC50, transcriptional activity in bone cells. On the procedure:
Transcription activity was measured in ROS 17/2.8 (bone) cells that were stably transfected with a 24-hydroxylase (24Ohase) gene promoter upstream of a luciferase reporter gene (Arbour et al., 1998). Cells were given a range of doses. Sixteen hours after dosing the cells were harvested and luciferase activities were measured using a luminometer. • RLU=relative luciferase units. Intestinal Calcium Transport and Bone Calcium Mobilization

In assay [3] the test system is Sprague-Dawley rats. The assay is described as follows: Bone calcium mobilization (serum calcium) in vitamin D-deficient rats. It counts as in vivo, rat. The settings on record: for bone calcium mobilization activity (serum calcium): vitamin D-deficient rats, low calcium diet (0.02%), four consecutive ip doses, FIG. 4. On the procedure: (§1) Male, weanling Sprague-Dawley rats were placed on Diet 11 (0.47% Ca) diet+AEK for one week followed by Diet 11 (0.02% Ca)+AEK for 3 weeks. The rats were then switched to a diet containing 0.47% Ca for one week followed by two weeks on a diet containing 0.02% Ca. Dose administration began during the last week on 0.02% calcium diet. Four consecutive ip doses were given approximately 24 hours apart. Twenty-four hours after the last dose, blood was collected from the severed neck and the concentration of serum calcium determined as a measure of bone calcium mobilization. The first 10 cm of the intestine was also collected for intestinal calcium transport analysis using the everted gut sac method.

Assay [4] has as its system Sprague-Dawley rats. The assay is described as follows: Intestinal calcium transport, everted gut sac method, in vitamin D-deficient rats. It counts as in vivo, rat. On the procedure: as §1
For assay [5], the target named is T1, full-length recombinant rat vitamin D receptor (Rattus norvegicus, UniProt P13053).
T1 construct: Full-length recombinant rat receptor was expressed in E. coli BL21 (DE3) Codon Plus RIL cells; histidine tag (C); made in house; host or cells: E. coli BL21 (DE3) Codon Plus RIL
T1 sequence (P13053 1-423): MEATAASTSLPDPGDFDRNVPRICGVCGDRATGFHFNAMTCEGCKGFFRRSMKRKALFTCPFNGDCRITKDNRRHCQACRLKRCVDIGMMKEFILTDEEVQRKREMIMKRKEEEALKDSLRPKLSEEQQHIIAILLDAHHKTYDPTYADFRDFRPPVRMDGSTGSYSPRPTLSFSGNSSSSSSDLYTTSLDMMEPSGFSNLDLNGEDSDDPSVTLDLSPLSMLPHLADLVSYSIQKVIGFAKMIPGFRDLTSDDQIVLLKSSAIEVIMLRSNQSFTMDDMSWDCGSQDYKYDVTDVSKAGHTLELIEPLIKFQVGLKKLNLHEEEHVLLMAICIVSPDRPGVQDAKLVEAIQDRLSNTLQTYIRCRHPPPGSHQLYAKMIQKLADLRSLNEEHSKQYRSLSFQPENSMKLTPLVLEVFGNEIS
The assay is described as follows: Vitamin D receptor binding, competition with [3H]-1,25(OH)2D3. The settings on record: FIG. 1. As for the experimental part:
Full-length recombinant rat receptor was expressed in E. coli BL21 (DE3) Codon Plus RIL cells and purified to homogeneity using two different column chromatography systems. The first system was a nickel affinity resin that utilizes the C-terminal histidine tag on this protein. The protein that was eluted from this resin was further purified using ion exchange chromatography (S-Sepharose Fast Flow). Aliquots of the purified protein were quick frozen in liquid nitrogen and stored at −80° C. until use. For use in binding assays, the protein was diluted in TEDK50 (50 mM Tris, 1.5 mM EDTA, pH7.4, 5 mM DTT, 150 mM KCl) with 0.1% Chaps detergent. The receptor protein and ligand concentration were optimized such that no more than 20% of the added radiolabeled ligand was bound to the receptor.
Radiolabeled and unlabeled ligands were added to 100 mcl of the diluted protein at a final ethanol concentration of ≦10%, mixed and incubated overnight on ice to reach binding equilibrium. The following day, 100 mcl of hydroxylapatite slurry (50%) was added to each tube and mixed at 10-minute intervals for 30 minutes. The hydroxylapaptite was collected by centrifugation and then washed three times with Tris-EDTA buffer (50 mM Tris, 1.5 mM EDTA, pH 7.4) containing 0.5% Titron X-100. […] Total binding was determined from the tubes containing only radiolabeled ligand.

“Also recorded” adds a separate entry of the source.

Regarding `C=C1/C(=C\C=C2/CCC[C@]3(C)[C@@H]([C@H](C)CCCC(C)(C)O)CC[C@@H]23)C[C@@H](O)C[C@@H]1O` [1,25(OH)2D3, 1α,25-dihydroxyvitamin D3, reference compound], the EC50 in assay [1] and in assay [2] was 3.2 nM each time. Also, the “bone calcium mobilization activity (serum calcium)” value with Sprague-Dawley rats [3] was “increased serum calcium levels at all dosages”. The intestinal calcium transport entry with Sprague-Dawley rats [4] (780 pmol/day) was “significant increase”.
Regarding `C=C1[C@H](O)CC(=C/C=C2\CCC[C@@H]3[C@@H](C(C)C)CC[C@@H]23)C[C@H]1O` [18,19-dinor-2MP, 2-methylene-18,19-dinor-1α-hydroxy-homopregnacalciferol], the “potency on HL-60 cell differentiation compared with 1,25(OH)2D3” value in assay [1] is recorded as “almost as potent as 1,25(OH)2D3”. In addition, the EC50 was determined as 15 nM in assay [1] (Homo sapiens, HL-60, 96 h) and 15 nM in assay [2]. For the same compound, the “transcriptional activity relative to 1α,25-dihydroxyvitamin D3 in bone cells” value in assay [2] was “one-tenth”. The bone calcium mobilization entry with Sprague-Dawley rats [3] (780 pmol/day for 4 consecutive days) was “did not result in mobilization of bone calcium”; with Sprague-Dawley rats [3] (2340 pmol/day), “without any substantial effect”; in the assay on Sprague-Dawley rats [3] (7020 pmol/day), “without any substantial effect”. Also, in the assay with Sprague-Dawley rats [3], the “bone calcium mobilization activity (serum calcium)” value is “no measurable bone calcium mobilization activity; also recorded: little, if any, activity in mobilizing calcium from bone”. Also, the Ki in assay [5] (full-length recombinant rat VDR) worked out at 0.22 nM. In addition, in assay [5] (relative to 1,25-(OH)2D3), the “binding to the receptor as compared to the standard 1,25-(OH)2D3” value is “one-fifth as well”. For the same compound, the intestinal calcium transport result in the assay on Sprague-Dawley rats [4] (780 pmol/day), with Sprague-Dawley rats [4] (2340 pmol/day) and in the assay with Sprague-Dawley rats [4] (7020 pmol/day) was “does not promote intestinal calcium transport” throughout. Besides, the “intestinal calcium transport activity” value with Sprague-Dawley rats [4] (vitamin D-deficient rats, low calcium diet (0.02%), four consecutive ip doses, FIG. 5) is “no measurable activity; also recorded: essentially devoid of intestinal calcium transport activity”.
“2-methylene-19-nor-1α-hydroxy-homopregnacalciferol [Compound 2MP, reference compound]”: in the assay on Sprague-Dawley rats [4] (2340 pmol/day), the intestinal calcium transport entry was “significant increase”.

These data come from patent US7238681B2, “2-Methylene-18,19-dinor-1α-hydroxy-homopregnacalciferol and its uses” (Wisconsin Alumni Research Foundation, priority 2004, dated 2007).
